In patent US20210260022A1, “SYNERGY FOR INCREASING ENERGY EXPENDITURE AND INSULIN SENSITIVITY” (The Board of Supervisors of Louisiana State University and …, priority 2018, published 2021):

Key:
human adipocytes [1] = assay: Acute agonist-stimulated lipolysis (glycerol release) in untreated and NRBC-treated adipocytes; assay type: cell-based; settings: 4.5 hour agonist exposure
Procedure: Acute agonist-stimulated glycerol release in untreated and NRBC-treated adipocytes. After 7d treatment with vehicle or NRBC, cells were exposed to receptor agonists dissolved in KRB with 1% BSA for 4.5 hours. Supernatants were removed for measurement of glycerol.
On the day of the acute lipolysis assay, cell cultures were rinsed with KRB to remove serum and exposed to the individual receptor agonists in KRB. Lipolysis was measured as glycerol released into the cell supernatant over 4.5 hour of agonist exposure. Non-hydrolyzable cAMP was also evaluated in each experiment as a positive control to measure the maximum capacity for PKA-stimulated lipolysis.

human adipocytes [2] = assay: qRT-PCR in human adipocytes (hADSC) treated two days with naringenin and inhibitors; assay type: cell-based; settings: 2d treatment
Procedure: Human white adipocytes were treated for 2d with naringenin in the presence of inhibitors of metabolic pathways to determine the mechanism of action for stimulating fat oxidation and thermogenic energy expenditure.
Naringenin increased UCP1 and CPT1β mRNA induction compared to control (p<0.001). PPARα and PPARγ inhibition reduced UCP1 and CPT1β mRNA expression (p<0.001). Each experiment was conducted with three biological replicates and four technical replicates.
The whole orange extract was dissolved in DMSO at 15 mM (based on 28% naringenin content) and added to cells at a dilution of 1:500 to achieve a final concentration of 30 μM. The inhibitors added to the naringenin-treated cells included: peroxisome proliferator-activated receptor alpha (PPARα) antagonist GW6471 and peroxisome proliferator-activated receptor gamma (PPARγ) antagonist GW9662 (Cayman Chemical, Ann Arbor, Mich.) at 10 μM concentration, protein kinase A (PKA) inhibitor H89 (Millipore Sigma, Burlington, Mass.) at 20 μM concentration, and protein kinase G (PKG) inhibitor […] (Biolog Life Science Institute, AXXORA, LLC, Farmingdale, N.Y.) at 50 μM concentration. GW6471 and GW9662 were dissolved in DMSO at 1000×, H89 was dissolved in PBS at 500×, and Rp-8-pCPT-cGMPS was dissolved in PBS at 100× prior to dilution in cell culture medium. Following a two-day treatment, the cells were harvested with Trizol reagent. RNeasy Mini Kit (Qiagen, Germantown, Md.) was used to isolate total RNA following manufacturer's protocol. The expression of UCP1, CPT1β, and GLUT4 was quantified with one-step reverse transcriptase PCR using the reverse PCR primer to prime cDNA synthesis as previously described.^6

human adipocytes [3] = assay: UCP1 mRNA in human adipocytes, naringenin combined with other botanical compounds; assay type: cell-based; settings: 5 μM naringenin in combination
Procedure: Human adipocytes were treated with 5 μM naringenin or with naringenin in combination with other botanical compounds to evaluate synergy in inducing UCP1 mRNA expression. A range of other botanical compounds such as […]

mice [4] = settings: 100 mg/kg injected daily; cited from earlier work
human adipocytes [5] = assay: mRNA expression (Taqman RT-PCR) in differentiated human adipocytes after 7 day treatment; assay type: cell-based; settings: for UCP1 and GLUT4 expression, carotenoid alone: 2 μM carotenoid; for UCP1 and GLUT4 expression, carotenoid alone / UCP1 and GLUT4 expression, carotenoid in combination with naringenin extract: seven days; for UCP1 and GLUT4 expression, carotenoid in combination with naringenin extract: 8 μM naringenin extract + 2 μM carotenoid; for gene expression, carotenoid in combination with NR: compared with BC + NR
mice [6] = settings: 150 mg/kg/day dietary; cited from earlier work
[7] = 4 mg/day, six months, obese children; cited from earlier work

CC[C@H](C)[C@@H]1NC(=O)[C@H](CCCNC(=N)N)NC(=O)[C@H](CC(=O)O)NC(=O)[C@H](CCSC)NC(=O)[C@H](CCCNC(=N)N)NC(=O)CNC(=O)CNC(=O)[C@H](Cc2ccccc2)NC(=O)[C@@H](NC(=O)[C@H](CO)NC(=O)[C@H](CO)NC(=O)[C@H](CCCNC(=N)N)NC(=O)[C@H](CCCNC(=N)N)NC(=O)[C@H](CC(C)C)NC(=O)[C@@H](N)CO)CSSC[C@@H](C(=O)N[C@@H](CC(N)=O)C(=O)N[C@@H](CO)C(=O)N[C@@H](Cc2ccccc2)C(=O)N[C@@H](CCCNC(=N)N)C(=O)N[C@@H](Cc2ccc(O)cc2)C(=O)O)NC(=O)CNC(=O)[C@H](CC(C)C)NC(=O)CNC(=O)[C@H](CO)NC(=O)[C@H](CCC(N)=O)NC(=O)[C@H](C)NC(=O)CNC1=O [ANP]
lipolysis stimulated by the agonist (glycerol release) (human adipocytes [1]): highest levels of lipolysis

Nc1nc2c(nc(Sc3ccc(Cl)cc3)n2[C@@H]2O[C@@H]3CO[P@@](=O)(S)O[C@H]3[C@H]2O)c(=O)[nH]1 [Biolog C013, reference compound]
Induction of UCP1 and CPT-1b by naringenin in the presence of the inhibitor (human adipocytes [2]): unaffected

Nc1ncnc2c1ncn2[C@@H]1O[C@@H]2COP(=O)(O)O[C@H]2[C@H]1O [Cyclic AMP]
lipolysis stimulated by the agonist (glycerol release) (human adipocytes [1]): greater lipolysis activity than any individual receptor ligand

CC12CCC(CC1)C(C)(C)O2 [Ecalyptol]
synergy with naringenin in increasing UCP1 mRNA levels (human adipocytes [3]): did not synergize

CCC(=O)NC[C@H](Cc1ccc(OCCc2nc(-c3ccccc3)oc2C)cc1)N/C(C)=C\C(=O)c1ccc(C(F)(F)F)cc1 [GW6471, reference compound]
Induction of UCP1 and CPT-1b by naringenin in the presence of the inhibitor (human adipocytes [2]): abolished

O=C(Nc1ccccc1)c1cc([N+](=O)[O-])ccc1Cl [GW9661, reference compound]
Induction of UCP1 and CPT-1b by naringenin in the presence of the inhibitor (human adipocytes [2]): abolished

O=S(=O)(NCCNC/C=C/c1ccc(Br)cc1)c1cccc2cnccc12 [H89, reference compound]
Induction of UCP1 and CPT-1b by naringenin in the presence of the inhibitor (human adipocytes [2]): partially reduced

CCCCCCCC/C=C\CCCCCCCC(=O)NCCO [OEA, oleoylethanolamide]
synergy with naringenin in increasing UCP1 mRNA levels (human adipocytes [3]): did not synergize

CC1=C(/C=C/C(C)=C/C=C/C(C)=C/C(=O)O)C(C)(C)CCC1 [atRA, All-trans retinoic acid]
body weight and adiposity (mice [4]): reduction in body weight and adiposity

CC1=C(/C=C/C(C)=C/C=C/C(C)=C/C=C/C=C(C)/C=C/C=C(C)/C=C/C2=C(C)CCCC2(C)C)C(C)(C)CCC1 [beta carotene, β-Carotene]
UCP1 and GLUT4 expression, carotenoid alone (human adipocytes [5]): no effect
RNA expression of uncoupling protein-1, adipose tissue glyceride lipase and adiponectin (human adipocytes [5]; beta carotene at 1 micromolar): increase RNA expression
adiposity, food intake, bodyweight (mice [6]): reduced adiposity without altering food intake or bodyweight
BMI z-score, subcutaneous and visceral adipose tissue, waist circumference [7]: reduction in BMI z-score, subcutaneous adipose tissue, visceral adipose tissue, waist circumference
insulin sensitivity [7]: improved insulin sensitivity

CC(CCc1ccc(O)cc1)NCCc1ccc(O)c(O)c1 (stereo not shown) [dobutamine]
lipolysis stimulated by the agonist (glycerol release) (human adipocytes [1]): comparable to isoproterenol

CC1=C[C@H](O)CC(C)(C)[C@H]1/C=C/C(C)=C/C=C/C(C)=C/C=C/C=C(C)/C=C/C=C(C)/C=C/C1=C(C)C[C@@H](O)CC1(C)C [lutein, Lutein]
UCP1 and GLUT4 expression, carotenoid alone (human adipocytes [5]): no effect
UCP1 and GLUT4 expression, carotenoid in combination with naringenin extract (human adipocytes [5]): act synergistically
gene expression, carotenoid in combination with NR (human adipocytes [5]): synergistic effect

CC(C)=CCC/C(C)=C/C=C/C(C)=C/C=C/C(C)=C/C=C/C=C(C)/C=C/C=C(C)/C=C/C=C(\C)CCC=C(C)C [lycopene, Lycopene]
UCP1 and GLUT4 expression, carotenoid alone (human adipocytes [5]): no effect
UCP1 and GLUT4 expression, carotenoid in combination with naringenin extract (human adipocytes [5]): act synergistically
gene expression, carotenoid in combination with NR (human adipocytes [5]): synergistic effect

PTH: parathyroid hormone (1-34) (SVSEIQLMHNLGKHLNSMERVEWLRKKLQDVHNF; Parathyroid hormone; UniProt P01270 32-65, looked up, fragment)
lipolysis stimulated by the agonist (glycerol release) (human adipocytes [1]): highest levels of lipolysis
